Assay results: US20150157742A1, “[…] OF BIOLOGICAL COMPOUNDS LABELED WITH THE ALPHA EMITTER Ac-225” (priority 2013, published 2015)

System: K422 lymphoma cells
Test: Saturation binding assay (Scatchard analysis) on K422 lymphoma cells
Conditions: Scatchard analysis (FIG. 3), read-out: binding affinity
Excerpt: Vos: “In vitro and in vivo evaluation of direct rhenium-188-labeled anti-CD52 monoclonal antibody alemtuzumab for radioimmunotherapy of B-cell chronic lymphocytic leukemia.” (Nuclear Medicine and Biology 35 (2008) 599-604)].

## Ac-225-DOTA-rituximab
  Kd: 0.03 µM
